Assay results: ChEMBL document CHEMBL4402545, “Subtype Selective γ-Aminobutyric Acid Type A Receptor (GABAAR) Modulators Acting at the Benzodiazepine Binding Site: An Update” (J Med Chem, 2020)

Key:
[1] = target: T1, Gamma-aminobutyric acid receptor subunit alpha-2 (Homo sapiens) (UniProt P47869); assay: Binding affinity to GABA-A alpha2 (unknown origin) assessed as reduction in DMCM induced current relative to control
T1 sequence (whole entry): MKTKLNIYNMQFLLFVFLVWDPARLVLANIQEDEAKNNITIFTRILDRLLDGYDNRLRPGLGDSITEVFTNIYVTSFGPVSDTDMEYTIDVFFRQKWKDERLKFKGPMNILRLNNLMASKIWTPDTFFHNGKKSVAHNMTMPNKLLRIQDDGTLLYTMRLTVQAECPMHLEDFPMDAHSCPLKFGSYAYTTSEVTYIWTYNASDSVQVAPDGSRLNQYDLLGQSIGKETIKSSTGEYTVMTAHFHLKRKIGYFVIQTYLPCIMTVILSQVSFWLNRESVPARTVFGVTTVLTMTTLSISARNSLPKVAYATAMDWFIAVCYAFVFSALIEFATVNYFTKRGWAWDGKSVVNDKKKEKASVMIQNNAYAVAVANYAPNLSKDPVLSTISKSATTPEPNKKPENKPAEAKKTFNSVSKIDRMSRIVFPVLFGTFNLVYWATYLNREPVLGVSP

[2] = target: T2, Gamma-aminobutyric acid receptor subunit alpha-1 (Homo sapiens) (UniProt P14867); assay: Negative allosteric modulation of GABA-A alpha1 (unknown origin) assessed as reduction in DMCM induced current relative to control
T2 sequence (whole entry): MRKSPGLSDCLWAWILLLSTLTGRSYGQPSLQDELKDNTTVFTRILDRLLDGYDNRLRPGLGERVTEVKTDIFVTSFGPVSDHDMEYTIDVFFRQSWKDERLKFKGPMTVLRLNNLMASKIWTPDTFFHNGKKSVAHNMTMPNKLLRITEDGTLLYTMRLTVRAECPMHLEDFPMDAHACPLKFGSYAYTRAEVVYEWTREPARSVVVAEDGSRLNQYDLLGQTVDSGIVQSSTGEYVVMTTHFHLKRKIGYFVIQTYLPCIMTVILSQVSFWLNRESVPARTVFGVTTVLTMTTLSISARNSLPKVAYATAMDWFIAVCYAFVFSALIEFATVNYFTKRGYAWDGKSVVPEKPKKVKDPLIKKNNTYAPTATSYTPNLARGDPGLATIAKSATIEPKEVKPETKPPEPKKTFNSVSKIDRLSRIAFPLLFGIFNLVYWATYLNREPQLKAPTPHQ

[3] = target: T3, Gamma-aminobutyric acid receptor subunit alpha-3 (Homo sapiens) (UniProt P34903); assay: Binding affinity to GABA-A alpha3 (unknown origin) assessed as reduction in DMCM induced current relative to control
T3 sequence (whole entry): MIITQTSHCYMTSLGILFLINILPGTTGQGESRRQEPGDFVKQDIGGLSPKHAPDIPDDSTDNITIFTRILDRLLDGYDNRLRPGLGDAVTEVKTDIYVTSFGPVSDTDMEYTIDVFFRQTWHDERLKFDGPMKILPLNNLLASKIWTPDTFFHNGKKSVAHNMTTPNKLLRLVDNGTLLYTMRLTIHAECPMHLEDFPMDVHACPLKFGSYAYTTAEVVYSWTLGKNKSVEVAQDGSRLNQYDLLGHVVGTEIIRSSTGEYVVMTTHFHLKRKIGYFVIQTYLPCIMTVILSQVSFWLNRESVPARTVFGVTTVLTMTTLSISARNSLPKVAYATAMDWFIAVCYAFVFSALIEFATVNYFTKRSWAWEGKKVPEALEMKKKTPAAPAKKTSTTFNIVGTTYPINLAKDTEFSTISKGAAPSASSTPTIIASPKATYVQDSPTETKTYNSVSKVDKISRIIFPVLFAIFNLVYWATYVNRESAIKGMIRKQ

[4] = target: T4, Gamma-aminobutyric acid receptor subunit alpha-5 (Homo sapiens, UniProt P31644); assay: Binding affinity to GABA-A alpha5 (unknown origin)
T4 sequence (P31644 whole entry): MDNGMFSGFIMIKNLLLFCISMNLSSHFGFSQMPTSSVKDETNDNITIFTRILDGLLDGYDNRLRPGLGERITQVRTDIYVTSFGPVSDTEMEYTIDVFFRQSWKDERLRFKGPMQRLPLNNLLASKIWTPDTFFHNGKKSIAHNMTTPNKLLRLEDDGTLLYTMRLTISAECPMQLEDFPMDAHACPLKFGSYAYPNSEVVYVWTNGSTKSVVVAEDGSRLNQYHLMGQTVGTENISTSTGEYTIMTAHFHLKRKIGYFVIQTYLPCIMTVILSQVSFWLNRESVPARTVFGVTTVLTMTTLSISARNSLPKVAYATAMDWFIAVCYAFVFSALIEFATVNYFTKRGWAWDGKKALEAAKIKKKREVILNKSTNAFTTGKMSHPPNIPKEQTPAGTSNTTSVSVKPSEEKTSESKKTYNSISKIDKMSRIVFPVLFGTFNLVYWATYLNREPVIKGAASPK

[5] = target: T5, Gamma-aminobutyric acid receptor subunit alpha-2 (Homo sapiens, UniProt P47869); assay: Binding affinity to GABA-A alpha2 (unknown origin)
T5 sequence (P47869 whole entry): T1 sequence (whole entry)

[6] = target: T6, Gamma-aminobutyric acid receptor subunit alpha-1 (Homo sapiens, UniProt P14867); assay: Binding affinity to GABA-A alpha1 (unknown origin)
T6 sequence (P14867 whole entry): T2 sequence (whole entry)

[7] = target: T7, Gamma-aminobutyric acid receptor subunit alpha-3 (Homo sapiens, UniProt P34903); assay: Binding affinity to GABA-A alpha3 (unknown origin)
T7 sequence (P34903 whole entry): T3 sequence (whole entry)

[8] = target: T8, Gamma-aminobutyric acid receptor subunit alpha-5 (Homo sapiens) (UniProt P31644); assay: Binding affinity to GABA-A alpha5 (unknown origin) assessed as reduction in DMCM induced current relative to control
T8 sequence (whole entry): T4 sequence (P31644 whole entry)

[9] = target: T1, Gamma-aminobutyric acid receptor subunit alpha-2 (Homo sapiens); assay: Binding affinity to GABA-A alpha2 (unknown origin) assessed as increase in induced current relative to control
[10] = target: T3, Gamma-aminobutyric acid receptor subunit alpha-3 (Homo sapiens); assay: Binding affinity to GABA-A alpha3 (unknown origin) assessed as increase in induced current relative to control
[11] = target: T2, Gamma-aminobutyric acid receptor subunit alpha-1 (Homo sapiens); assay: Binding affinity to GABA-A alpha1 (unknown origin) assessed as increase in induced current relative to control
[12] = target: T8, Gamma-aminobutyric acid receptor subunit alpha-5 (Homo sapiens); assay: Binding affinity to GABA-A alpha5 (unknown origin) assessed as increase in induced current relative to control
Homo sapiens [13] = organism: Homo sapiens; assay: Selectivity ratio of Ki for binding affinity to GABAA alpha1beta3gamma2 (unknown origin) to Ki for binding affinity to GABAA alpha5beta3gamma2 (unknown origin)
Homo sapiens [14] = organism: Homo sapiens; assay: Selectivity ratio of Ki for binding affinity to GABAA alpha2beta3gamma2 (unknown origin) to Ki for binding affinity to GABAA alpha5beta3gamma2 (unknown origin)
Homo sapiens [15] = organism: Homo sapiens; assay: Selectivity ratio of Ki for binding affinity to GABAA alpha3beta3gamma2 (unknown origin) to Ki for binding affinity to GABAA alpha5beta3gamma2 (unknown origin)
[16] = target: GABA-A receptor; alpha-5/beta-3/gamma-2 (Homo sapiens) (UniProt P18507+P28472+P31644); assay: Negative allosteric modulation of GABAA alpha5beta3gamma2 (unknown origin) expressed in Xenopus laevis oocytes assessed as inhibition of GABA-induced current response at -60 mV holding potential by two electrode voltage clamp method relative to control; type: cell-based; set-up: scale not given: the % may be the effect or the level left

Row | SMILES | Ki [4] [nM] | Ki [5] [nM] | Ki [6] [nM] | Ki [7] [nM] | fold change (FC) [9] | fold change (FC) [10] | fold change (FC) [11] | fold change (FC) [12] | other results
1 | Cc1onc(-c2ccc(F)cc2)c1COc1ccc(C(=O)N2CCS(=O)(=O)CC2)cn1 [BASMISANIL] | 4.7 | 502 | 985 | 489 | – | – | – | – | Efficacy [1]: -6%; Efficacy [2]: -4%; Efficacy [3]: -2%; Efficacy [8]: -39%
2 | C#Cc1ccc2c(c1)C(c1ccccn1)=NCc1c(-c3cnco3)ncn1-2 | – | – | – | – | 0.66 | 0.77 | 0.35 | – | –
3 | CC(C)(O)c1ccc2c(c1)ncn2-c1cccc(-c2cc(C#N)ccc2Cl)n1 | – | – | – | – | 0.27 | 0.47 | -0.1 | 0.05 | –
4 | C#Cc1ccc2c(c1)C(c1ccccc1F)=N[C@H](C)c1c(C(=O)N(C)C)ncn1-2 | 5000 | 30000 | 55000 | 63000 | – | – | 0.65 | 1.46 | Ratio Ki (Homo sapiens [13]): 6 to 15; Ratio Ki (Homo sapiens [14]): 6 to 15; Ratio Ki (Homo sapiens [15]): 6 to 15
5 | FC(F)c1ncn2c1Cn1ncnc1-c1cc(Br)ccc1-2 | 4.6 | 185 | 174 | 80 | – | – | – | – | Efficacy [1]: -4%; Efficacy [2]: -3%; Efficacy [3]: 2%; Efficacy [8]: -35%
6 | CCOC(=O)c1ncn2c1[C@@H]1CCCN1C(=O)c1cc(OC)ccc1-2 | – | 17 to 360 | 17 to 360 | 17 to 360 | – | – | – | – | Ratio Ki (Homo sapiens [13]): 50 to 100; Ratio Ki (Homo sapiens [14]): 50 to 100; Ratio Ki (Homo sapiens [15]): 50 to 100
7 | C#Cc1ccc2c(c1)C(c1ccccn1)=NCc1c(C(=O)OCC)ncn1-2 | – | – | – | – | 0.52 | 0.36 | 0.27 | 0.23 | –
8 | C#Cc1ccc2c(c1)C(c1ccccc1F)=N[C@H](C)c1c(C(=O)OCC)ncn1-2 | – | – | – | – | 0.19 | 0.18 | 0.25 | 1.19 | –
9 | Clc1ccc2c(c1)-c1ncnn1Cc1c(Cl)ncn1-2 | 2 | 24 | 15 | 14 | – | – | – | – | Efficacy [1]: -9%; Efficacy [2]: -3%; Efficacy [3]: -11%; Efficacy [8]: -40%
10 | C#Cc1ccc2c(c1)C(=O)N(C)Cc1c(C(=O)OCC)ncn1-2 | – | – | – | – | – | – | – | – | Activity [16]: 36%
11 | COCc1ncn2c1CN(C)C(=O)c1cc(Cl)ccc1-2 | 6 | 180 | 362 | 328 | – | – | – | – | Efficacy [1]: 15%; Efficacy [2]: 20%; Ratio Ki (Homo sapiens [13]): 30 to 60; Activity [16]: 17%; Ratio Ki (Homo sapiens [14]): 30 to 60; Ratio Ki (Homo sapiens [15]): 30 to 60; Efficacy [3]: 45%; Efficacy [8]: -20%
12 | C#Cc1ccc2c(c1)C(c1ccccc1F)=N[C@@H](C)c1c(C(=O)OCC)ncn1-2 | – | – | – | – | 0.57 | 0.31 | 0.3 | 1.19 | –
13 | c1ccc(-c2nnc3c4c(c(OCc5ccccn5)nn23)C2CCC4CC2)cc1 | – | 26 | 71 | 12 | – | – | – | – | –
14 | CCCNC(=O)c1nnc2c(-c3cc(OC)ccc3OC)cccc2c1N [AZD6280] | 1680 | – | 0.5 | 3.1 | – | – | – | – | –
15 | C#Cc1ccc2c(c1)C(c1ccccc1F)=N[C@H](C)c1c(C(=O)NC3CC3)ncn1-2 | 79 | 789 | 542 | 480 | – | – | 1.22 | 1.23 | Ratio Ki (Homo sapiens [13]): 6 to 15; Ratio Ki (Homo sapiens [14]): 6 to 15; Ratio Ki (Homo sapiens [15]): 6 to 15
16 | C#Cc1ccc2c(c1)C(c1ccccn1)=NCc1c(C(=O)OC)ncn1-2 | – | 1000 | – | 1000 | – | – | – | – | Activity [12]: 11%; Activity [9]: 140%; Activity [10]: 129%; Activity [11]: 25%
17 | C#Cc1ccc2c(c1)C(c1ccccc1F)=N[C@H](C)c1c(C(=O)NC)ncn1-2 | 55 | 360 | 850 | 660 | 0.5 | 0.2 | 0.11 | 2.48 | –
